Several values for one entry are separate records, joined by “and”; a condition that tells them apart may be missing. Equal entries are not always repeated. Inconclusive results and toxic doses are left out.
Tested on: BDF1 mice, P388 leukemia ip, median survival T/C
Test: NCI In Vivo Anticancer Drug Screen. Data for tumor model P388 Leukemia (intraperitoneal) in B6D2F1 (BDF1) mice
Details: endpoint: median survival time, higher = longer survival
Procedure, shortened: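 Survival ratio, drug arm over vehicle arm, in mice with a transplanted tumour.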

[1] = dose: 100.0 mg/kg/injection, schedule: Q01DX009 (ip), vehicle: Klucel (hydroxypropylcellulose) (HPC)
[2] = dose: 200.0 mg/kg/injection, schedule: Q01DX009 (ip), vehicle: Klucel (hydroxypropylcellulose) (HPC)
[3] = dose: 100.0 mg/kg/injection, schedule: Q01DX009 (ip), vehicle: saline with Tween-80
[4] = dose: 200.0 mg/kg/injection, schedule: Q01DX009 (ip), vehicle: saline with Tween-80
[5] = dose: 50.0 mg/kg/injection, schedule: Q01DX009 (ip), vehicle: saline with Tween-80
[6] = dose: 6.25 mg/kg/injection, schedule: Q04DX003 (ip), vehicle: saline
[7] = dose: 12.5 mg/kg/injection, schedule: Q04DX003 (ip), vehicle: saline
[8] = dose: 25.0 mg/kg/injection, schedule: Q04DX003 (ip), vehicle: saline
[9] = dose: 50.0 mg/kg/injection, schedule: Q04DX003 (ip), vehicle: saline with Tween-80
[10] = dose: 100.0 mg/kg/injection, schedule: Q04DX003 (ip), vehicle: saline with Tween-80
[11] = dose: 400.0 mg/kg/injection, schedule: Q01DX009 (ip), vehicle: saline with Tween-80
[12] = dose: 400.0 mg/kg/injection, schedule: Q01DX009 (ip), vehicle: Klucel (hydroxypropylcellulose) (HPC)
[13] = dose: 100.0 mg/kg/injection, schedule: Q01DX009 (ip), vehicle: saline
[14] = dose: 200.0 mg/kg/injection, schedule: Q01DX009 (ip), vehicle: saline
[15] = dose: 75.0 mg/kg/injection, schedule: Q01DX009 (ip), vehicle: saline with Tween-80
[16] = dose: 100.0 mg/kg/injection, schedule: Q04DX003 (ip), vehicle: gum acacia
[17] = dose: 200.0 mg/kg/injection, schedule: Q04DX003 (ip), vehicle: gum acacia

CC(C)C(=O)c1ccco1
T/C (dose: 6.25 mg/kg/injection, schedule: Q04DX003 (ip), vehicle: saline with Tween-80): 95 % of control
T/C (dose: 12.5 mg/kg/injection, schedule: Q04DX003 (ip), vehicle: saline with Tween-80): 100 % of control
T/C (dose: 25.0 mg/kg/injection, schedule: Q04DX003 (ip), vehicle: saline with Tween-80): 90 % of control

CCCCC(CC)CC1CCCCC1O (configuration not stated)
T/C [1]: 87 % of control
T/C (dose: 100.0 mg/kg/injection, schedule: Q04DX003 (ip), vehicle: Klucel (hydroxypropylcellulose) (HPC)): 122 % of control
T/C [2]: 91 % of control
T/C (dose: 200.0 mg/kg/injection, schedule: Q04DX003 (ip), vehicle: Klucel (hydroxypropylcellulose) (HPC)): 109 % of control
T/C (dose: 400.0 mg/kg/injection, schedule: Q04DX003 (ip), vehicle: Klucel (hydroxypropylcellulose) (HPC)): 95 % of control

COc1ccc(C(O)c2ccccc2C(=O)Nc2ccccc2)cc1 (configuration not stated)
T/C [3]: 90 % of control
T/C [4]: 100 % of control

OC(C#CC(O)c1ccccc1)c1ccccc1 (configuration not stated)
T/C (dose: 100.0 mg/kg/injection, schedule: Q04DX003 (ip), vehicle: saline): 100 % of control
T/C (dose: 200.0 mg/kg/injection, schedule: Q04DX003 (ip), vehicle: saline): 104 % of control

CC1(C)OCC(C2OC3OC(C)(C)OC3C2OP(=O)(N2CC2)N2CC2)O1 (configuration not stated)
T/C [5]: 103 % of control
T/C [3]: 115 % of control
T/C [4]: 123 % of control

CN(C)c1ccc(/C=C\c2cc(/C=C/c3ccc(N(C)C)cc3)nc3ccccc23)cc1
T/C [5]: 103 % of control
T/C [3]: 116 % of control
T/C [4]: 120 % of control

CC(=O)CC(C)=O.CC(=O)CC(C)=O.O.O.[Ni]
T/C [6]: 108 % of control
T/C [7]: 104 % of control
T/C [8]: 114 % of control

CCOC(=O)Oc1ccc(/C=N/NC(N)=S)nc1
T/C [5]: 169 % of control
T/C [3]: 178 % of control

FC(F)(F)c1nc2cccc3c2n1CCC3
T/C [9]: 100 % of control
T/C [10]: 91 % of control

Cc1ccc(-n2c(O)c(C=N)c(=O)n(-c3ccc(C)cc3)c2=O)cc1
T/C [3]: 104 % of control
T/C [4]: 104 % of control
T/C [11]: 95 % of control

O=C(c1ccccc1)C(Br)C(Br)C(=O)c1ccccc1 (configuration not stated)
T/C [1]: 115 % of control
T/C [2]: 100 % of control
T/C [12]: 95 % of control

CCOC(=S)S
T/C [13]: 100 % of control
T/C [14]: 95 % of control

Cc1ccc2c(ccc(C)[n+]2C)c1
T/C (dose: 67.0 mg/kg/injection, schedule: Q01DX009 (ip), vehicle: saline): 183 % of control
T/C [13]: 150 % of control

c1ccc(-c2nnn(-c3ccccc3)n2)cc1
T/C [5]: 93 % of control
T/C [4]: 93 % of control

NOCc1cccc(Cl)c1
T/C [9]: 91 % of control
T/C [10]: 91 % of control

Cc1ccc2cc3c(ccc4ccccc43)c3c2c1CC3
T/C (dose: 7.4 mg/kg/injection, schedule: Q01DX009 (ip), vehicle: saline with Tween-80): 117 % of control
T/C (dose: 25.0 mg/kg/injection, schedule: Q01DX009 (ip), vehicle: saline with Tween-80): 122 % of control
T/C [5]: 154 % of control
T/C [15]: 122 % of control
T/C (dose: 88.0 mg/kg/injection, schedule: Q04DX003 (ip), vehicle: saline with Tween-80): 118 % of control
T/C [3]: 162 % of control
T/C (dose: 132.0 mg/kg/injection, schedule: Q04DX003 (ip), vehicle: saline with Tween-80): 118 % of control
T/C (dose: 300.0 mg/kg/injection, schedule: Q01DX009 (ip), vehicle: saline with Tween-80): 163 % of control
T/C (dose: 300.0 mg/kg/injection, schedule: Q04DX003 (ip), vehicle: saline with Tween-80): 118 % of control

CCCCCn1c(Cl)c(/C=N\Nc2ccc([N+](=O)[O-])cc2[N+](=O)[O-])c2ccccc21
T/C (dose: 100.0 mg/kg/injection, schedule: Q04DX002 (ip), vehicle: Klucel (hydroxypropylcellulose) (HPC)): 88 % of control
T/C (dose: 200.0 mg/kg/injection, schedule: Q04DX002 (ip), vehicle: Klucel (hydroxypropylcellulose) (HPC)): 89 % of control
T/C (dose: 400.0 mg/kg/injection, schedule: Q04DX002 (ip), vehicle: Klucel (hydroxypropylcellulose) (HPC)): 90 % of control

O=S(=O)(Nc1ccccc1Cl)c1ccccc1
T/C [16]: 111 % of control
T/C [17]: 96 % of control
T/C (dose: 400.0 mg/kg/injection, schedule: Q04DX003 (ip), vehicle: gum acacia): 111 % of control

O=C(Nc1ccc(C2=NCCN2)cc1)c1cccc(C(=O)Nc2ccc(C3=NCCN3)cc2)c1
T/C (dose: 8.0 mg/kg/injection, schedule: Q01DX010 (ip), vehicle: saline): 160 % of control
T/C (dose: 16.0 mg/kg/injection, schedule: Q01DX010 (ip), vehicle: saline): 163 % of control and 180 % of control
T/C (dose: 32.0 mg/kg/injection, schedule: Q01DX010 (ip), vehicle: saline): 195 % of control and 200 % of control
T/C (dose: 64.0 mg/kg/injection, schedule: Q01DX010 (ip), vehicle: saline): 235 % of control and 200 % of control

CSc1cccc(NC(C)=O)c1
T/C [1]: 95 % of control
T/C [10]: 104 % of control
T/C (dose: 200.0 mg/kg/injection, schedule: Q04DX003 (ip), vehicle: saline with Tween-80): 100 % of control
T/C [12]: 95 % of control
T/C (dose: 400.0 mg/kg/injection, schedule: Q04DX003 (ip), vehicle: saline with Tween-80): 109 % of control

CC(C)CNC(=S)N/N=C\C=N/NC(=S)NCC(C)C
T/C [15]: 98 % of control
T/C (dose: 150.0 mg/kg/injection, schedule: Q01DX009 (ip), vehicle: saline with Tween-80): 91 % of control

CCOC(=S)SCC(=O)Nc1ccc(S(N)(=O)=O)cc1
T/C (dose: 15.0 mg/kg/injection, schedule: Q01DX009 (ip), vehicle: saline with Tween-80): 95 % of control
T/C (dose: 30.0 mg/kg/injection, schedule: Q01DX009 (ip), vehicle: saline with Tween-80): 104 % of control
T/C (dose: 60.0 mg/kg/injection, schedule: Q01DX009 (ip), vehicle: saline with Tween-80): 113 % of control

COc1cc(C#N)ccc1O
T/C (dose: 100.0 mg/kg/injection, schedule: Q01DX009 (ip), vehicle: gum acacia): 100 % of control
T/C [16]: 92 % of control
T/C (dose: 200.0 mg/kg/injection, schedule: Q01DX009 (ip), vehicle: gum acacia): 87 % of control
T/C [17]: 88 % of control

Cc1cc2no[n+]([O-])c2cc1C
T/C (dose: 50.0 mg/kg/injection, schedule: Q01DX009 (ip), vehicle: Klucel (hydroxypropylcellulose) (HPC)): 109 % of control
T/C [1]: 109 % of control
T/C [2]: 109 % of control

CC12CCCN(CCCl)C1CCC1C2CCC2(C)C1CCCN2CCCl (configuration not stated)
T/C (dose: 0.38 mg/kg/injection, schedule: Q01DX001 (ip), vehicle: saline): 98 % of control
T/C (dose: 0.75 mg/kg/injection, schedule: Q01DX001 (ip), vehicle: saline): 102 % of control
T/C (dose: 0.78 mg/kg/injection, schedule: Q01DX001 (ip), vehicle: saline): 102 % of control
T/C (dose: 1.5 mg/kg/injection, schedule: Q01DX001 (ip), vehicle: saline): 109 % of control
T/C (dose: 1.56 mg/kg/injection, schedule: Q01DX001 (ip), vehicle: saline): 100 % of control
T/C (dose: 3.13 mg/kg/injection, schedule: Q01DX001 (ip), vehicle: saline): 107 % of control
T/C (dose: 6.25 mg/kg/injection, schedule: Q01DX001 (ip), vehicle: saline): 116 % of control

CCCc1cc(CCC)nc(NNc2nc(CCC)cc(CCC)n2)n1
T/C [3]: 86 % of control
T/C [4]: 100 % of control
T/C [11]: 100 % of control

O=C(O)C1CCC2CCCCC2[N-]1.O=C(O)C1CCC2CCCCC2[N-]1.[Cu+2] (configuration not stated)
T/C [6]: 100 % of control
T/C [7]: 90 % of control
T/C [8]: 100 % of control

O=C(O)/C(=C/c1ccc(Cl)cc1)c1ccccc1
T/C [3]: 91 % of control
T/C [4]: 94 % of control

CC(=N\O)/C(C)=N/O.CC(=N\O)/C(C)=N/O.[Cl][Co][Cl]
T/C (dose: 6.25 mg/kg/injection, schedule: Q01DX009 (ip), vehicle: saline): 90 % of control and 99 % of control
T/C (dose: 12.5 mg/kg/injection, schedule: Q01DX009 (ip), vehicle: saline): 100 % of control
T/C (dose: 25.0 mg/kg/injection, schedule: Q01DX009 (ip), vehicle: saline): 99 % of control
T/C (dose: 50.0 mg/kg/injection, schedule: Q01DX009 (ip), vehicle: saline): 94 % of control and 110 % of control
T/C [13]: 91 % of control and 110 % of control
T/C [14]: 100 % of control

CN(C)c1ccc(C=C2C(=O)CC(C)(C)CC2=O)cc1
T/C [5]: 105 % of control
T/C [3]: 95 % of control
T/C [4]: 97 % of control

Nc1nc(N)c(N=O)c(Nc2ccc(Cl)c(Cl)c2)n1
T/C [5]: 109 % of control
T/C [3]: 109 % of control
T/C [4]: 95 % of control
